The target in one assay is T1, pyridine-esterase (Oryctolagus cuniculus, UniProt P12337, A196R/H30K).
T1 construct: made in house; host or cells: transgenic tobacco (Samson) and tomato (UC82B) plants, tissue extracts
T1 sequence (P12337 19-565 H30K/A196R): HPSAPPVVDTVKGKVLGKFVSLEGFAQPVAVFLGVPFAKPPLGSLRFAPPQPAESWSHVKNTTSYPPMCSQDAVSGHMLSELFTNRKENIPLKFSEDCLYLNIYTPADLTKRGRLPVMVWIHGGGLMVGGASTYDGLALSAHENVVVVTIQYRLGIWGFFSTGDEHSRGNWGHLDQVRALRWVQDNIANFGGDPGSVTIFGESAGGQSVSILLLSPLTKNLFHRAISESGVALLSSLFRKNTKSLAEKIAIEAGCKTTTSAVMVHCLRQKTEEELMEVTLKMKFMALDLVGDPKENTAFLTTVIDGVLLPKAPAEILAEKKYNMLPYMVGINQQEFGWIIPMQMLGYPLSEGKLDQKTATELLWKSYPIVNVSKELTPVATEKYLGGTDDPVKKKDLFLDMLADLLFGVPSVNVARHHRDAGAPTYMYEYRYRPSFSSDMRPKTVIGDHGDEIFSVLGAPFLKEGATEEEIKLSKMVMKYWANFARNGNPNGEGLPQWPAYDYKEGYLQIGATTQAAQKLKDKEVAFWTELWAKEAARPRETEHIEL
The assay is classed as biochemical, rabbit. The note with it: tobacco line #37437 extract, FIG. 4. The protocol:
(§1) Esterase activity assays. Esterase activity was measured in vitro by conversion of either [^14 C]thiazopyr or [^14 C]MON 14300 to their corresponding monoacid. Pyridine-esterase activity was assayed during protein purification and from tissue extracts of transgenic plants. The homogenizing buffer for plant tissues consisted of 100 mM Tris pH 8.0, 1 mM EDTA, 1 mM DTT, and 10% glycerol in water. Plant tissues (1 g/ml buffer) including leaves, seeds, flowers, seedlings, etc. were homogenized in conical centrifuge tubes using a spinning pestle at 4° C. Following centrifugation (12,000× g), the supernatant (250 μl) was assayed immediately for esterase activity by incubation with [^14 C]thiazopyr or [^14 C]MON 14300 (4 μg) in 0.1 M Tris pH 8.0 buffer (50 μl) at 37° C. The reaction was sampled (100 μL) at various times (0.5 to 100 hr) to generate a kinetic profile of monoacid formation. The reaction was stopped by addition of 1% trifluoroacetic acid in acetonitrile (v/v, 150 μl). Following centrifugation (12,000× g for 3 min), the supernatant was analyzed by HPLC/RAD (radioactivity detection) to resolve the monoacid from the parent herbicide and other metabolites. Control reactions in the absence of the esterase recovered un-reacted thiazopyr or MON 14300 for the duration of experiments. Esterase activity was also assayed during protein purification following a similar procedure except a single time-point (1-2 hrs) of incubation was selected within the linear range of reaction. In vitro assays also employed three commonly used calorimetric (p-nitrophenyl butyrate) or fluorescent (4-methyl umbelliferyl butyrate and 5-bromo-4-chloro-3-indolylacetate) substrates. These substrates are useful in rapidly and qualitatively detecting general esterase activity.
Tissue extracts from 3 tobacco R1 seedlings were employed for further studies. Two of the lines (#37437 and #37432) expressed high levels of esterase (~0.5%) and one line (#37436) which expressed no pyridine-esterase was used as negative control. Tissue extracts were incubated with [^14 C]MON 14300 and formation of the monoacid monitored with time. […] In comparison, less that 2% monoacid was detected in line (#37436). […] First, pyridine-esterase was capable of driving the hydrolysis reaction to completion with no apparent product inhibition, and second, there was no endogenous esterase activity in tobacco which catalyzed MON 14300 hydrolysis.

The conditions of assay [1]: Feng et al., 1995b; cited from earlier work.
A further assay deals with T2, RLE3 (Oryctolagus cuniculus, UniProt P12337, A196R/H30K).
T2 construct: 19-residue synthetic ER signal peptide (design based on the homologous rat esterase, Robbi et al. 1990; Ala added after Met) (N); made in house; host or cells: Spodoptera frugiperda SF9 cells, baculovirus
T2 sequence (P12337 with tags, fused parts or gaps H30K/A196R): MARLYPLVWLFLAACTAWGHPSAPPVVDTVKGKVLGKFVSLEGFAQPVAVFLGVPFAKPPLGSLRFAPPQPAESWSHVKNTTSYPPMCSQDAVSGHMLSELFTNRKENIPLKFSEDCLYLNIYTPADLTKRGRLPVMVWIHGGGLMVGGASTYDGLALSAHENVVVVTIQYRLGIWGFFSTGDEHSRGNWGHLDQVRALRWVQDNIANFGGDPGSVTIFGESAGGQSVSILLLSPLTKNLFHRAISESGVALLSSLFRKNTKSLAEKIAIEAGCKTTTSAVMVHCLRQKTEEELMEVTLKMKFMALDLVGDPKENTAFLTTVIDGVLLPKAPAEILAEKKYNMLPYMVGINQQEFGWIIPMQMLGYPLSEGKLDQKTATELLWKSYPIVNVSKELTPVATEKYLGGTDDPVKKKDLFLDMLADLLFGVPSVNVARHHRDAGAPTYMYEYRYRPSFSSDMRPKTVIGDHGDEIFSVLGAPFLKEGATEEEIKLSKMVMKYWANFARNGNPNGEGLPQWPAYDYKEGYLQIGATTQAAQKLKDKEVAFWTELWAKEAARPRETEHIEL
Kind of assay: Esterase activity of RLE3 cDNA expressed in insect cells. Format: biochemical, rabbit. Particulars: culture media from RLE3 cells; esterase inhibitor. The protocol: as §1
Expression of RLE1 and RLE3 cDNAs in insect cells. Mature rabbit liver esterases are glycoproteins which reside in the lumen of the endoplasmic reticulum (ER) (Korza et al., 1988). […]

Like-named read-outs stand apart in the source and are kept apart here.

Turning to `COC(=O)c1c(Cl)nn(C)c1S(=O)(=O)NC(=O)Nc1nc(OC)cc(OC)n1`, the “hydrolysis by pyridine-esterase (substrate specificity)” value at pyridine-esterase was “little to no hydrolysis”; at pyridine-esterase (listed as halosulfiron), “not”.

As for `CSC(=O)c1c(C(F)F)nc(C(F)(F)F)c(C(=O)SC)c1CC(C)C` [Dithiopyr, dithiopyr], the “hydrolysis by pyridine-esterase (substrate specificity)” value at pyridine-esterase is given as “not hydrolyzed”. `CC(C)Cc1c(C(=O)O)c(C(F)F)nc(C(F)(F)F)c1C1=NCCS1` [monoacid metabolite]: the herbicidal activity result in assay [1] is listed as “virtually devoid of any herbicidal activity”. For `O=[N+]([O-])c1ccc(OP(=O)(O)Oc2ccc([N+](=O)[O-])cc2)cc1` [bis(p-nitropheyl) phosphate], at RLE3, the “inactivation of esterase activity” value is recorded as “inactivated”.

(Values after US6107549A, “Genetically engineered plant resistance to thiazopyr and other pyridine herbicides” (Monsanto Company, priority 1999, dated 2000).)
